For experiment [1], the system named is PDGF release of human platelets. Description: Inhibition of PDGF release from collagen-stimulated human platelets (RIA). Particulars: Platelet, N = 6, % of control. It counts as cell-based. The protocol: (§1) Human platelet-rich plasma (PRP) is incubated in an aggregometer at 37° C. and mixed with […] of collagen to cause aggregation. […] The course of the aggregation is recorded in the aggregometer. 10 minutes after collagen addition, the samples are centrifuged at 3000 rpm and the supernatant is tested with an enzyme linked immunosorbent assay (ELISA) for its content of plasminogen activator inhibitor-1 (PAI-1) and with a radioimmunoassay (RIA) for the content of platelet-derived growth factor (PDGF).

Experiment [2] relates to collagen-stimulated blood platelets. Description: Inhibition of collagen-induced thrombocytopenia in anesthetized guinea pigs. It counts as in vivo, guinea pig. Particulars: for % Thrombocytopenia Inhibition: average ± SEM. The text has this:
Reversible thrombocytopenias are produced on anesthetized guinea pigs by injection of collagen ([…] i.v.). The cause of these thrombocytopenias is an aggregate formation of the collagen-stimulated blood platelets and the embolization of these platelet aggregates in the lungs, where they then lodge and thus cause the observed drops of the platelet count in the blood (thrombocytopenias).

The subject of experiment [3] is thrombus formation in carotid arteries. Description: Thrombus formation in carotid arteries previously traumatized by pressure + cold (thrombus hemoglobin content). Type of experiment: in vivo, guinea pig. The protocol: A 2-cm-long piece of the external left carotid artery on an anesthetized guinea pig is carefully exposed and drawn over a small metal plate. Then the vascular wall is weighted down over a length of 1 cm for 3 minutes with a steel stamp weighing 200 g, cooled to -15° C. In this way, a massive local vascular trauma is caused on a large artery and a red thrombus develops on the traumatized site. Three hours after the trauma the traumatized segment and an equally long piece of the contralateral artery are removed, asked and put in hemoglobin test reagent. The hemoglobin contents of the two segments are determined 24 hours later. The net hemoglobin content of the red thrombus as the measurement of the thrombus size is calculated from the difference of these hemoglobin contents.

Another experiment concerns human platelets. Description: Inhibition of collagen-stimulated aggregation of human platelets in platelet-rich plasma (aggregometer). It counts as cell-based. On the procedure:
as §1

Experiment [4] concerns occluding platelet thrombi on mesenteric arterioles. Description: Thrombogenic ADP concentration for occluding platelet thrombi on previously traumatized mesenteric arterioles. Type of experiment: in vivo, guinea pig. Conditions: for Thrombogenic ADP Concentration, Increase: N 5, average. On the procedure: A mesenteric loop is placed on an anesthetized guinea pig and is superfused with a moderately heated solution of common salt. Under intravital microscopic control the vascular wall of a mesenteric arteriole (020-50 m) is traumatized by a series of electric pulses. By subsequent local application of increasing concentrations of ADP (adenosine diphosphate) solution a thrombogenic ADP concentration is determined, at which an occluding platelet thrombus forms on the pretraumatized site of the arteriole. This thrombogenic ADP concentration produces vascular-specific and reproducible thrombi in the respective arteriole.

In experiment [5] the test system is PAI-1 release of human platelets. Description: Inhibition of PAI-1 release from collagen-stimulated human platelets (ELISA). Type of experiment: cell-based. Conditions: Platelet, N = 6, % of control. The protocol:
as §1
(In general: ELISA stands for enzyme-linked immunosorbent assay.)

Take `CCC#CC[C@H](C)[C@H](O)C#C[C@@H]1[C@H]2C/C(=C/COCC(=O)O)C[C@H]2C[C@H]1O` [Cicaprost]: the inhibition – broadly, the change of the read-out against control, counted positive when it falls – at 0.1 µM in experiment [1] (Cicaprost 10^-7 M) was found to be 81 ± 1%; in the experiment with human platelets (Homo sapiens, Platelet, Cicaprost 10^-7 M, N = 6, % of control), 95 ± 3%; in experiment [5] (Cicaprost 10^-7 M), 80 ± 5%. Also, the inhibition at 0.01 µM is 81 ± 3% in experiment [1] (Cicaprost 10^-8 M); 95 ± 4% in the experiment with human platelets (Homo sapiens, Platelet, Cicaprost 10^-8 M, N = 6, % of control); 72 ± 3% in experiment [5] (Cicaprost 10^-8 M). The inhibition at 0.001 µM is 3 ± 3% in experiment [1] (Cicaprost 10^-9 M); 0% in the experiment with human platelets (Homo sapiens, Platelet, Cicaprost 10^-9 M, N = 6, % of control); 0% in experiment [5] (Cicaprost 10^-9 M). Further, the inhibition at 0.0001 µM in experiment [1] (Cicaprost 10^-10 M) came out at 1 ± 2%; in the experiment on human platelets (Homo sapiens, Platelet, Cicaprost 10^-10 M, N = 6, % of control), 4 ± 3%; in experiment [5] (Cicaprost 10^-10 M) it was 0%. Besides, the “thrombocytopenia inhibition, in words” value in experiment [2] (Cicaprost 1 ng/kg/min i.v., separately) is on record as “ineffective”. The “% Thrombocytopenia Inhibition” value in experiment [2] (Cicaprost 1 ng/kg/min i.v., N 6, n.s.) is 8 ± 5%; in experiment [2] (Cicaprost 3 ng/kg/min, N 6, p less than 0.05 vs control), 36 ± 4%. The “higher dose of Cicaprost alone needed for the effect of the combination” value in experiment [2] (vs 1 ng/kg/min i.v. in combination with ASA 0.5 mg/kg) is recorded as “three-fold higher dose”. Further, the Thrombus Hb content, Median in experiment [3] (Cicaprost 0.3 ng/kg/min, N 10, Q 25/Q 75 8.0/25.0, n.s., control 8.6) turned out to be 12.4 µmol; in experiment [3] (Cicaprost 1.0 ng/kg/min, N 10, Q 25/Q 75 0.2/5.8, significant vs control 8.6) it was 1.9 µmol; in experiment [3] (Cicaprost 3.0 ng/kg/min, N 11, Q 25/Q 75 -0.4/0.7, significant vs control 8.6), 0 µmol. In addition, the “effect on thrombus formation in the carotid artery, in words” value in experiment [3] (dosage printed C.3 ng/kg/min i.v.) is reported as “significantly effective”. The “platelet aggregation inhibition, in words” value with human platelets (Cicaprost 10^-10 or 10^-9 M, separately) is reported as “ineffective”. In experiment [4] (100 ng/kg/min i.v. alone vs 10 ng/kg/min in combination), the “higher dosage of Cicaprost alone needed for the antithrombotic action of the combination” value was found to be 10 fold. Further, the “change of thrombogenic ADP concentration, in words” value in experiment [4] (Cicaprost 10 ng/kg/min i.v.) was “not significantly effective”. Moreover, the “Thrombogenic ADP Concentration, Increase” value in experiment [4] (Cicaprost 10 ng/kg/min, SEM ±0.39, n.s.) was determined as 0.36; in experiment [4] (Cicaprost 30 ng/kg/min, SEM ±0.20, p less than 0.05 vs control), 1.02; in experiment [4] (Cicaprost 100 ng/kg/min, SEM ±0.20, p less than 0.05 vs control), 1.32. For the same compound, the “increase of the thrombogenic ADP concentration” value in experiment [4] (Cicaprost 100 ng/kg/min i.v., N=5) is reported as 1.32±0.2 log M.

As for `CC(=O)Oc1ccccc1C(=O)O` [ASA, acetylsalicylic acid], the “thrombocytopenia inhibition, in words” value in experiment [2] (ASA 0.5 mg/kg i.v.) is given as “weakly inhibiting”. Moreover, the “% Thrombocytopenia Inhibition” value in experiment [2] (ASA 0.5 mg/kg i.v., N 8, p less than 0.05 vs control) is on record as 17 ± 3%. For the same compound, the “effect on thrombus formation in the carotid artery, in words” value in experiment [3] (ASA 5 mg/kg i.v.) is “no significant effect”. In experiment [3] (ASA 5 mg/kg, N 10, Q 25/Q 75 -0.1/13.8, n.s., control 8.6), the Thrombus Hb content, Median came to 3.4 µmol. Moreover, the “change of thrombogenic ADP concentration, in words” value in experiment [4] (ASA 10 mg/kg i.v.) is “does not change the thrombogenic ADP concentration”. Also, the “Thrombogenic ADP Concentration, Increase” value in experiment [4] (ASA 10 mg/kg, SEM ±0.13, n.s.) came out at 0.06.

The values are drawn from patent US5093325A, “Combination preparation having antithrombotic action” (priority 1989, dated 1992).
